Reference: article PMC10010340, “The Wnt Pathway Inhibitor RXC004 Blocks Tumor Growth and Reverses Immune Evasion in Wnt Ligand–dependent Cancer Models” (Cancer Research Communications, 2022)

How the values were obtained:
HPAF-II cells = assay: Cell-cycle analysis, phospho-Ser10 histone H3 flow cytometry; type: cell-based, human; details: 100 nmol/L, representative plot (DMSO 2.03%)
Description: For concentration–response effects on gene expression, Single-Shot Cell Lysis kit (Bio-Rad #172-5080) was used for RNA extraction, data were normalized to DMSO-treated controls, and IC50 values determined. For cell-cycle analysis, the cancer cell line panel was treated with RXC004 (100 nmol/L) or DMSO (0.1%) for 3 days. Cell-cycle profiles were determined by staining with propidium iodide (Thermo Fisher Scientific #P3566) and phospho-Ser10-Histone-H3 (AlexaFluor-647, BioLegend #650806), and quantified using an Agilent Novocyte-3000 flow cytometer. For in vitro growth curve analysis, HPAF-II and SNU-1411 cells were seeded in 96-well plates at 2,000 cells/well and imaged on the IncuCyte (Sartorius) at 10× magnification with 4 fields of view per well. Total cell object count over time was calculated using the Adherent Cell-by-Cell analysis module.

B16F10 tumors = assay: B16F10/SCID-Beige model; type: in vivo, mouse (SCID-Beige); details: 5 mg/kg once daily for 21 days, immunocompromised mice
Description: B16F10/SCID-Beige model was performed at Axis Bioservices. Mouse B16F10 cells (2 × 10^5) were subcutaneously implanted in flanks of the immunocompromised male SCID-Beige mice. Treatment with RXC004 (5 mg/kg once daily) was initiated at day 3, once the tumors were palpable, and tumor volume assessed over time.

recombinant CYP enzymes = assay: Recombinant CYP enzyme assays (metabolism); type: in vitro ADME
Microsomal stability [1] = type: in vitro ADME; details: Human, 1 μmol/L
Description: (§1) Metabolic stability: liver microsomes and hepatocytes from human, mouse (CD1), rat (Sprague Dawley) and dog (Beagle) were obtained from Invitrogen. RXC004 (1 μmol/L) was incubated at 37°C with microsomes (0.5 mg · mL^−1) or hepatocytes (0.5 × 10^6 cells · mL^−1). Aliquots were removed at 0–45 minutes and RXC004 concentrations determined by LC/MS-MS analysis. Half-life (T1/2) and intrinsic clearance (CLint) were calculated as described in ref. [18].

Microsomal stability [2] = type: in vitro ADME, mouse (CD1); details: Mouse, 1 μmol/L
Description: as §1

Porcupine = target: T1, Porcupine (Homo sapiens, UniProt Q9H237); assay: Wnt palmitoylation assay (GFP-Wnt1-Fc in HEK293T cells); type: cell-based; details: 100 nmol/L; GFP-Wnt1-Fc in HEK293T cells with alkyne palmitate
T1 construct: HEK293T cells were transfected with GFP-Wnt1-Fc constructs; endogenous in cells; host or cells: HEK293T
T1 sequence (Q9H237 whole entry): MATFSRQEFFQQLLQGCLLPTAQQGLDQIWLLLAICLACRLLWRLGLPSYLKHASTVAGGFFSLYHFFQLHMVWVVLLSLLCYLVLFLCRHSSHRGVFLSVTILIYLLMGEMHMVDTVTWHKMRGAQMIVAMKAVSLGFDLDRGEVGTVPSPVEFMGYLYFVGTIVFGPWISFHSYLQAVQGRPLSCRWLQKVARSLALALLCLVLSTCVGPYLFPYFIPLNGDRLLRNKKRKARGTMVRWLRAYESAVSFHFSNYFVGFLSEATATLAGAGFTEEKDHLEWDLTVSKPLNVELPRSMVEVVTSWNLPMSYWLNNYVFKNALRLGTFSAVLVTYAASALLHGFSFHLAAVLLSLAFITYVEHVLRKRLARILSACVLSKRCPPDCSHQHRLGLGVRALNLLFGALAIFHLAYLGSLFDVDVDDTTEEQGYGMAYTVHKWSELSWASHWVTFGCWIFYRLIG
Description: Palmitoylation of Wnt was performed by the Burris group, under a fee-for-service agreement, and was detected as described in Galli and colleagues ([16]). Briefly, HEK293T cells were transfected with GFP-Wnt1-Fc constructs, followed by overnight incubation with alkyne palmitate (Alk-C16) in the presence of DMSO or 100 nmol/L RXC004. Cells were lysed and A/G agarose beads used to pull down GFP-Wnt1-Fc, which was then subjected to click chemistry to covalently attach biotin azide to any attached alkyne palmitate. Following SDS-PAGE and Western blotting, palmitoylation of Wnt was detected using Streptavidin IR 800 dye. GFP detection served as a transfection and/or loading control.

CYP2C19 = target: T2, CYP2C19 (Homo sapiens, UniProt P33261); assay: Cytochrome P450 inhibition in human liver microsomes; type: in vitro ADME
T2 construct: from tissue; host or cells: human liver microsomes
T2 sequence (P33261 whole entry): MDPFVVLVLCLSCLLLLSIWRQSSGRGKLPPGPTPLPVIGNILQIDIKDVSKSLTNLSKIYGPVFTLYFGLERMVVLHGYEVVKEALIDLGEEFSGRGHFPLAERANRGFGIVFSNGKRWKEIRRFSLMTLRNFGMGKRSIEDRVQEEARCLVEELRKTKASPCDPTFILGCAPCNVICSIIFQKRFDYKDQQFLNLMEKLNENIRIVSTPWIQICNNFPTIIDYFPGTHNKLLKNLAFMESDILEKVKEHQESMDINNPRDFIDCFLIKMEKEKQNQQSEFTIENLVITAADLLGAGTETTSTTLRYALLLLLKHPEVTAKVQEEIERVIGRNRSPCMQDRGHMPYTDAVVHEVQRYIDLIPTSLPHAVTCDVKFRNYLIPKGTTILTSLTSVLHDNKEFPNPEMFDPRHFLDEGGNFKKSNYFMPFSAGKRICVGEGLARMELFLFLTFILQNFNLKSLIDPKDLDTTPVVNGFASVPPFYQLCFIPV
Description: (§2) Cytochrome P450 (CYP) assays were performed using human liver microsomes incubated with P450 specific substrates as recommended by the FDA ([19]) at a concentration equivalent to Km in the presence of 0.03–30 μmol/L RXC004, or solvent control. Concentration of the metabolites was analyzed by LC/MS-MS.

CYP1A2 = target: T3, CYP1A2 (Homo sapiens, UniProt P05177); assay: as above; type: in vitro ADME
T3 construct: from tissue; host or cells: human liver microsomes
T3 sequence (P05177 whole entry): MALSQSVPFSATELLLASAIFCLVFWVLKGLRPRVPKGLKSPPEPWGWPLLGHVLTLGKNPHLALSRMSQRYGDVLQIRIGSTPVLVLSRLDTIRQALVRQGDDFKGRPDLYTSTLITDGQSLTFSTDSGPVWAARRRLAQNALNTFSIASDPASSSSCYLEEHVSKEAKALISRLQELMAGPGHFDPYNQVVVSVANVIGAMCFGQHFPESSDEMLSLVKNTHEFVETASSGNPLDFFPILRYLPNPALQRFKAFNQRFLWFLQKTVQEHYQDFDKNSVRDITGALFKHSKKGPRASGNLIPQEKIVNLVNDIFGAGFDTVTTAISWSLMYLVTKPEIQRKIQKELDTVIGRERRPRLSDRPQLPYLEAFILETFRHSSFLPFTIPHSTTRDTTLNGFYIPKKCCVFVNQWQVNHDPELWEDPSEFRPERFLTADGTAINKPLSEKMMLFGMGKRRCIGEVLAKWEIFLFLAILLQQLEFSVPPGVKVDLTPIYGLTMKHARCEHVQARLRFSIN
Description: as §2

CYP2C9 = target: T4, CYP2C9 (Homo sapiens, UniProt P11712); assay: as above; type: in vitro ADME
T4 construct: from tissue; host or cells: human liver microsomes
T4 sequence (P11712 whole entry): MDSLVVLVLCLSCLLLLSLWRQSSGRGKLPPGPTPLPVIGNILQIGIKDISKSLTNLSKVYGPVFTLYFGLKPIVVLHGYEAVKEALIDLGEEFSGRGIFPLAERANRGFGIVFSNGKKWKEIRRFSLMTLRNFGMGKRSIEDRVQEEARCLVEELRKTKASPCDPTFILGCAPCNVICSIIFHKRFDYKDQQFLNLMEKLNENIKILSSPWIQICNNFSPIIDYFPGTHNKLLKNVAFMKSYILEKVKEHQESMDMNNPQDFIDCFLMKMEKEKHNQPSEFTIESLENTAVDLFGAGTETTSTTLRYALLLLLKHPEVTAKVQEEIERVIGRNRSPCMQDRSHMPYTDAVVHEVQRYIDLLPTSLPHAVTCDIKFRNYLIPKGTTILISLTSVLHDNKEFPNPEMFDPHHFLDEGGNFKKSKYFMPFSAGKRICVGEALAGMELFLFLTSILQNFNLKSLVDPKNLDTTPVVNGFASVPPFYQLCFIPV
Description: as §2

CYP3A4 = target: T5, CYP3A4 (Homo sapiens, UniProt P08684); assay: as above; type: in vitro ADME
T5 construct: from tissue; host or cells: human liver microsomes
T5 sequence (P08684 whole entry): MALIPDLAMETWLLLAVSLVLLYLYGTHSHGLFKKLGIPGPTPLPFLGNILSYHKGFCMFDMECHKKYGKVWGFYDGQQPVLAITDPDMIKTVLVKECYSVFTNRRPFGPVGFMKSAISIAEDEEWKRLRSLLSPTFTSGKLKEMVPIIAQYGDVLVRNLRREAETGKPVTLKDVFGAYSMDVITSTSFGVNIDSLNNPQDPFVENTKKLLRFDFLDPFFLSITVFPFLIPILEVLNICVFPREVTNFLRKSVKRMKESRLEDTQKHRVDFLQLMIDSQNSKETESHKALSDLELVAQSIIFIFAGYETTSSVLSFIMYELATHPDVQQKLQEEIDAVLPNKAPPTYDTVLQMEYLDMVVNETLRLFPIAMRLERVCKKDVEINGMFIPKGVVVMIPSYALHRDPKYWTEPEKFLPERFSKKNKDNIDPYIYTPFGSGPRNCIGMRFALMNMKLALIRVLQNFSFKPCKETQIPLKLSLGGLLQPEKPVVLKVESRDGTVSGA
Description: as §2

CYP2D6 = target: T6, CYP2D6 (Homo sapiens, UniProt P10635); assay: as above; type: in vitro ADME
T6 construct: from tissue; host or cells: human liver microsomes
T6 sequence (P10635 whole entry): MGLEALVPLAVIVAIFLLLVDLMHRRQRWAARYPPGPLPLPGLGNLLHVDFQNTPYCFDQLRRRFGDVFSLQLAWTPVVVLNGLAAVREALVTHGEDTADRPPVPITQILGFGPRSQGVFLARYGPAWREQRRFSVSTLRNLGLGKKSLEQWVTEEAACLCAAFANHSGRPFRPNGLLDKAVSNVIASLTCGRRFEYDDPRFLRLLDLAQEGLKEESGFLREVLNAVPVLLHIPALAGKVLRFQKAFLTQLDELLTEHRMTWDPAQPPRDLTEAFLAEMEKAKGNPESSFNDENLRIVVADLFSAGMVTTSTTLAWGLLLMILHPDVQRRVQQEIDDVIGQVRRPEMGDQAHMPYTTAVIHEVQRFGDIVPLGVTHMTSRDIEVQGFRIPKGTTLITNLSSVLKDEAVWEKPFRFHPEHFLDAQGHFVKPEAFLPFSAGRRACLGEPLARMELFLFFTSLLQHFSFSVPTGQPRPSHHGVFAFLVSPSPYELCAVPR
Description: as §2

SNU-1411 xenograft = assay: In vivo 18FDG-PET; parameters: species or system mouse (NOD-SCID); details: SNU-1411, 5 mg/kg once daily
Description: Experiment was performed at Medicines Discovery Catapult. SNU-1411 (1 × 10^7 cells; NOD-SCID mice) or HPAF-II (1 × 10^7 cells; NOD-SCID mice) were implanted subcutaneously and treatment with RXC004 (5 mg/kg once daily) or vehicle commenced when tumors reached approximately 200 mm^3. Mice were imaged prior to dosing, day 3 and day 7 after dosing. A 10 MBq injection of ^18FDG (PETNET), with a 45-minute washout was followed by a 20-minute PET scan using a Siemens Inveon PET scanner. Tissues removed on day 7 for biodistribution analysis were assessed using a PerkinElmer Wallac Wizard Gamma counter.

[3] = system: Wnt5a secretion from L-Wnt5a cells; assay: Wnt secretion assay; type: cell-based; details: 300 nmol/L, 48 hours
Description: L-Wnt5a cells (L cells overexpressing Wnt5a; ATCC CRL-2814) were treated with RXC004 (300 nmol/L) or DMSO for 48 hours. Wnt5a secreted into media was detected by Western blotting using anti-Wnt5a antibody (Cell Signaling Technology #2530).

With `Cc1c(-c2ccnc(C(F)(F)F)c2)ncn1CC(=O)Nc1ccc(-c2cnccn2)cn1` [RXC004, 2-[5-methyl-4-[2-(trifluoromethyl)-4-pyridyl]imidazol-1-yl]-N-(5-pyrazin-2-yl-2-pyridyl)acetamide] the “pH3+ (percentage phospho-Ser10 histone H3 positive cells)” value (HPAF-II cells) was 0.28%, the tumor growth (B16F10 tumors) was “did not reduce tumor growth” and the “metabolizing CYP enzyme” value (recombinant CYP enzymes) was “exclusively metabolized by CYP3A4”. The “Microsomal stability: CLint” value (Microsomal stability [1]) was 6.0 μL minute^−^1 · mg^−^1, the “Microsomal stability: CLint” value (Microsomal stability [2]) was 3.9 μL minute^−^1 · mg^−^1 and the “palmitoylation of Wnt” value (Porcupine) was “inhibited palmitoylation of Wnt”. For the same compound, the IC50 (CYP2C19) was > 25 µM, the IC50 (CYP1A2) was > 25 µM and the IC50 (CYP2C9) was > 25 µM. The IC50 (CYP3A4) was > 25 µM, the IC50 (CYP2D6) was > 25 µM and the “18FDG tumor:blood ratios” value (SNU-1411 xenograft; 7-day dosing) was “significant decrease in tumor:blood ratios”. The “decrease in maximum standardized uptake value (18FDG-PET)” value (SNU-1411 xenograft; day 7, versus vehicle) was 31% and the “Wnt5a secretion into the media” value [3] was “inhibited Wnt5a secretion”.
